Assay results as given in US4820695A, “C-20-dihydro-deoxy-(cyclic amino)-derivatives of macrolide antibiotics” (priority 1987, dated 1989).
≈ marks a conversion by molar mass, not a printed value. Like-named read-outs stand apart in the source and are kept apart here.

What was measured:
Escherichia coli EC14 = assay: MIC, standard agar-dilution assay (Table IX); assay type: cell-based; conditions: read-out: MIC
[1] = system: Staphylococcus aureus V41; assay: MIC, standard agar-dilution assay (Table IX); assay type: cell-based; conditions: Staphylococcus aureus V41, Penicillin-resistant strain, read-out: MIC
Escherichia coli TEM = assay: MIC, standard agar-dilution assay (Table IX); assay type: cell-based; conditions: read-out: MIC
[2] = system: Haemophilus influenzae 76; assay: MIC, standard agar-dilution assay (Table IX); assay type: cell-based; conditions: Haemophilus influenzae 76, Ampicillin-resistant strain, read-out: MIC
[3] = system: Streptococcus pyogenes C203; assay: MIC, standard agar-dilution assay (Table IX); assay type: cell-based; conditions: read-out: MIC
Staphyloccus aureus X1.1 = assay: MIC, standard agar-dilution assay (Table IX); assay type: cell-based, Staphylococcus aureus; conditions: Staphylococcus aureus, read-out: MIC
[4] = system: Staphylococcus epidermidis 222; assay: MIC, standard agar-dilution assay (Table IX); assay type: cell-based; conditions: read-out: MIC
Escherichia coli N10 = assay: MIC, standard agar-dilution assay (Table IX); assay type: cell-based; conditions: read-out: MIC
[5] = Titratable groups in 66% aqueous DMF (Tables XIV-XVI); assay type: physicochemical
Description: ^c Run in 66% aqueous DMF
^d Run in 66% aqueous DMF

[6] = system: Streptococcus Group D 2041; assay: MIC, standard agar-dilution assay (Table IX); assay type: cell-based; conditions: GROUPD2041, read-out: MIC
[7] = system: Staphylococcus epidermidis EPI1; assay: MIC, standard agar-dilution assay (Table IX); assay type: cell-based; conditions: Staphylococcus epidermidis EPI1; agar-dilution; read-out: MIC
[8] = system: Streptococcus pyogenes C203; assay: ED50 in mice experimentally infected with S. pyogenes C203 (Table XI); assay type: in vivo; conditions: Streptococcus pyogenes, doses given 1 and 4 hours postinfection, read-out: ED50
Protocol: The C-20 modified derivatives of this invention have shown in vivo antimicrobial activity against experimentally-induced infections in laboratory animals. When two doses of test compound were administered to mice experimentally infected with S. pyogenes C203, the activity observed was measured as an ED50 value [effective dose in mg/kg to protect 50% of the test animals: see Warren Wick, et al., J. Bacteriol. 81, 233-235 (1961)].
^a mg/kg × 2; doses given 1 and 4 hours postinfection

Staphylococcus aureus = assay: MIC, broth-dilution microtiter test (Table X); assay type: cell-based; conditions: read-out: MIC
Description: (§1) The MIC's in Table X were obtained using conventional broth-dilution microtiter tests.

[9] = system: Pasteurella hemolytica 22C; assay: MIC, broth-dilution microtiter test (Table X); assay type: cell-based; conditions: read-out: MIC
Description: as §1

Streptococcus sp. 19F = assay: MIC, broth-dilution microtiter test (Table X); assay type: cell-based; conditions: read-out: MIC
Description: as §1

[10] = system: Mycoplasma gallisepticum 29C; assay: MIC, broth-dilution microtiter test (Table X); assay type: cell-based; conditions: Mycoplasmoides gallisepticum, read-out: MIC
Description: as §1

[11] = system: Pasteurella multocida 17E; assay: MIC, broth-dilution microtiter test (Table X); assay type: cell-based; conditions: Bovine isolate, read-out: MIC
Description: as §1

[12] = system: Pasteurella multocida 60A; assay: MIC, broth-dilution microtiter test (Table X); assay type: cell-based; conditions: Avian isolate, read-out: MIC
Description: as §1

[13] = system: Mycoplasma hyopneumoniae S5972; assay: MIC, broth-dilution microtiter test (Table X); assay type: cell-based; conditions: Mesomycoplasma hyopneumoniae, read-out: MIC
Description: as §1

Mycoplasma synoviae 40A = assay: MIC, broth-dilution microtiter test (Table X); assay type: cell-based; conditions: Mycoplasmopsis synoviae, read-out: MIC
Description: as §1

[14] = system: Staphylococcus aureus X400; assay: MIC, standard agar-dilution assay (Table IX); assay type: cell-based; conditions: Staphylococcus aureus X400, Methicillin-resistant strain, read-out: MIC
Klebsiella X26 = assay: MIC, standard agar-dilution assay (Table IX); assay type: cell-based; conditions: read-out: MIC
[15] = system: Staphylococcus aureus S13E; assay: MIC, standard agar-dilution assay (Table IX); assay type: cell-based; conditions: Staphylococcus aureus, S13E
[16] = system: Streptococcus Group D X66; assay: MIC, standard agar-dilution assay (Table IX); assay type: cell-based; conditions: read-out: MIC
[17] = system: Streptococcus pneumoniae Park I; assay: MIC, standard agar-dilution assay (Table IX); assay type: cell-based; conditions: Streptococcus pneumoniae Park I; agar-dilution; read-out: MIC
Pasteurella multocida [18] = assay: Pasteurella infection in one-day-old chicks, medicated drinking water (Table XIII); assay type: in vivo; conditions: Administered in the available drinking water at 2 g/gal
Protocol: (§2) Many of the C-20 modified derivatives of this invention have also shown in vivo antibacterial activity against infections induced by gram-negative bacteria. Tables XII and XIII summarize the results of tests in which illustrative compounds were evaluated against a Pasteurella infection in one-day-old chicks. The compounds were administered parenterally or orally after challenge of the chicks with Pasteurella multocida (0.1 ml of a 10^-4 dilution of a twenty-hour tryptose broth culture of an avian P. multocida given subcutaneously). In these tests, unless indicated otherwise, all non-medicated infected chicks died within 24 hours of Pasteurella challenge. In the tests summarized in Table XII, the compounds were administered by subcutaneous injection at a dosage of 30 mg/kg, 1 and 4 hours post-challenge of the chicks with P. multocida. In the tests summarized in Table XIII the compounds were administered in medicated drinking water (at a level of 2 g/gal) available from 4 to 20 hours prior to challenge of the chicks with P. multocida and during the 3 -day test period.
^a Administered in the available drinking water at a concentration of […]

Pasteurella multocida [19] = assay: Pasteurella infection in one-day-old chicks, subcutaneous administration (Table XII); assay type: in vivo; conditions: Administered subcutaneously, 30 mg/kg × 2, 1 and 4 hours post-challenge
Protocol: as §2
^a Administered subcutaneously; 30 mg/kg × 2

[20] = system: Haemophilus influenzae C.L.; assay: MIC, standard agar-dilution assay (Table IX); assay type: cell-based; conditions: Ampicillin-sensitive strain, read-out: MIC
Mycoplasma hyorhinis 29E = assay: MIC, broth-dilution microtiter test (Table X); assay type: cell-based; conditions: read-out: MIC
Description: as §1

CCC1OC(=O)CC(O)C(C)C(OC2OC(C)C(O)C(N(C)C)C2O)C(CCN2CC3(C)CC2CC(C)(C)C3)CC(C)C(=O)C=CC(C)=CC1COC1OC(C)C(O)C(OC)C1OC (stereo not drawn) [Compound D21, 20-DH-DO-20-[1,3,3-trimethyl-6-azabicyclo[3.2.1]octan-6-yl]desmycosin]
MIC (Escherichia coli EC14): 64 µg/mL (≈ 70.4 µM) | MIC [1]: 1 µg/mL (≈ 1.1 µM) | MIC (Escherichia coli TEM): 32 µg/mL (≈ 35.2 µM) | MIC [2]: 16 µg/mL (≈ 17.6 µM) | MIC [3]: 0.5 µg/mL (≈ 0.55 µM) | MIC (Staphyloccus aureus X1.1): 1 µg/mL (≈ 1.1 µM) | MIC [4]: 0.5 µg/mL (≈ 0.55 µM) | MIC (Escherichia coli N10): 64 µg/mL (≈ 70.4 µM) | pKa ([5]; Titratable groups): 9.7 | pKa ([5]; Titratable groups (first value)): 8 | MIC [6]: 8 µg/mL (≈ 8.8 µM) | MIC [7]: 1 µg/mL (≈ 1.1 µM) | ED50 ([8]; C203, Oral): 10 mg/kg | ED50 ([8]; C203, sc, Subcutaneous): 1 mg/kg | MIC (Staphylococcus aureus): 0.78 µg/mL (≈ 0.858 µM) | MIC [9]: 3.12 µg/mL (≈ 3.43 µM) | MIC (Streptococcus sp. 19F): 1.56 µg/mL (≈ 1.72 µM) | MIC [10]: 1.56 µg/mL (≈ 1.72 µM) | MIC [11]: 3.12 µg/mL (≈ 3.43 µM) | MIC [12]: 3.12 µg/mL (≈ 3.43 µM) | MIC [13]: 0.195 µg/mL (≈ 0.214 µM) | MIC (Mycoplasma synoviae 40A): 0.39 µg/mL (≈ 0.429 µM) | MIC [14]: 1 µg/mL (≈ 1.1 µM) | MIC (Klebsiella X26): 64 µg/mL (≈ 70.4 µM) | MIC [15]: 1 µg/mL (≈ 1.1 µM) | MIC [16]: 4 µg/mL (≈ 4.4 µM) | MIC [17]: 0.5 µg/mL (≈ 0.55 µM) | Number of Deaths/Number Treated (Pasteurella multocida [18]): 3/10 | Number of Deaths/Number Treated (Pasteurella multocida [19]): 7/10 | MIC [20]: 32 µg/mL (≈ 35.2 µM)

CCC1OC(=O)CC(O)C(C)C(OC2OC(C)C(O)C(N(C)C)C2O)C(CCN2CC=CCC2)CC(C)C(=O)C=CC(C)=CC1COC1OC(C)C(O)C(OC)C1OC (stereo not drawn) [Compound D22, 20-DH-DO-20-(1,2,3,6-Tetrahydropyridin-1-yl)desmycosin]
MIC (Escherichia coli EC14): > 128 µg/mL | MIC [1]: 0.5 µg/mL (≈ 0.596 µM) | MIC (Escherichia coli TEM): 64 µg/mL (≈ 76.3 µM) | MIC [2]: 8 µg/mL (≈ 9.53 µM) | MIC [3]: 0.25 µg/mL (≈ 0.298 µM) | MIC (Staphyloccus aureus X1.1): 1 µg/mL (≈ 1.19 µM) | MIC [4]: 0.25 µg/mL (≈ 0.298 µM) | MIC (Escherichia coli N10): > 128 µg/mL | MIC [6]: 8 µg/mL (≈ 9.53 µM) | MIC [7]: 0.5 µg/mL (≈ 0.596 µM) | ED50 ([8]; C203, Oral): 40 mg/kg | ED50 ([8]; C203, sc, Subcutaneous): 0.8 mg/kg | MIC (Staphylococcus aureus): 1.56 µg/mL (≈ 1.86 µM) | MIC [9]: 3.12 µg/mL (≈ 3.72 µM) | MIC (Streptococcus sp. 19F): 3.12 µg/mL (≈ 3.72 µM) | MIC [10]: 0.78 µg/mL (≈ 0.93 µM) | MIC [11]: 12.5 µg/mL (≈ 14.9 µM) | MIC [12]: 12.5 µg/mL (≈ 14.9 µM) | MIC [13]: 1.56 µg/mL (≈ 1.86 µM) | MIC (Mycoplasma synoviae 40A): 0.78 µg/mL (≈ 0.93 µM) | MIC (Mycoplasma hyorhinis 29E): 25 µg/mL (≈ 29.8 µM) | MIC [14]: 1 µg/mL (≈ 1.19 µM) | MIC (Klebsiella X26): 64 µg/mL (≈ 76.3 µM) | MIC [15]: 0.5 µg/mL (≈ 0.596 µM) | MIC [16]: 8 µg/mL (≈ 9.53 µM) | MIC [17]: 1 µg/mL (≈ 1.19 µM) | Number of Deaths/Number Treated (Pasteurella multocida [18]): 5/10 | Number of Deaths/Number Treated (Pasteurella multocida [19]): 0/10 | MIC [20]: 16 µg/mL (≈ 19.1 µM)

CCC1OC(=O)CC(O)C(C)C(OC2OC(C)C(O)C(N(C)C)C2O)C(CCN2CC3CCCCC3C2)CC(C)C(=O)C=CC(C)=CC1COC1OC(C)C(O)C(OC)C1OC (stereo not drawn) [Compound D45]
Number of Deaths/Number Treated (Pasteurella multocida [18]): 1/10 | Number of Deaths/Number Treated (Pasteurella multocida [19]): 0/10

CCC1OC(=O)CC(O)C(C)C(OC2OC(C)C(O)C(N(C)C)C2O)C(CCN2CC3CCC(C)(C2)C3(C)C)CC(C)C(=O)C=CC(C)=CC1COC1OC(C)C(O)C(OC)C1OC (stereo not drawn) [Compound D47]
Number of Deaths/Number Treated (Pasteurella multocida [18]): 6/10 | Number of Deaths/Number Treated (Pasteurella multocida [19]): 0/10
